Measurements published in PMC2699512 (Nucleic Acids Research, 2009).

What was measured:
[1] = biological target: T1, yeast RNA triphosphatase (Cet1; S. cerevisiae RTPase) (Saccharomyces cerevisiae, UniProt O13297); test: GTPase inhibition kinetics, TLC; format: biochemical
T1 sequence (O13297 2-549): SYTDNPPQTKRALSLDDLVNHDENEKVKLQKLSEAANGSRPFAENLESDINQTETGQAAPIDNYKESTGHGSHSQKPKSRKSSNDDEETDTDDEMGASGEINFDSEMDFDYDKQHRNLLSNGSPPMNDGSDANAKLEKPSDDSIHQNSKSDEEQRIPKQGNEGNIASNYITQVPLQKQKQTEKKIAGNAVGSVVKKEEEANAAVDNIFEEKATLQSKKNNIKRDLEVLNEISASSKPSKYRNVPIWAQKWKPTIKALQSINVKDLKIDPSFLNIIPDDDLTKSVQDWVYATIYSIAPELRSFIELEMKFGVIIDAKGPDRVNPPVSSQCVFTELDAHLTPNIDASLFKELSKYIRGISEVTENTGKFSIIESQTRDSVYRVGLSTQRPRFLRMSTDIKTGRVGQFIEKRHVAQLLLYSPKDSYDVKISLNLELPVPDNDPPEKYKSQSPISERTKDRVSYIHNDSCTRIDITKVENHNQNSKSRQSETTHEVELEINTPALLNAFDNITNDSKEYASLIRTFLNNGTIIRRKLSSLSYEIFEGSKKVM

[2] = biological target: T1, yeast RNA triphosphatase (Cet1; S. cerevisiae RTPase); test: inhibition of [γ-32P]GTP hydrolysis, TLC of released phosphate; format: biochemical

Structure (SMILES)	Ki [1] [µM]	IC50 [2] [µM]
Cn1c(N)nc2c(ncn2[C@@H]2O[C@H](COP(=O)(O)OP(=O)(O)OP(=O)(O)O)[C@@H](O)[C@H]2O)c1=O [A-4]	1.5	8.1
COc1nc(N)nc2c1ncn2[C@@H]1O[C@H](COP(=O)(O)OP(=O)(O)OP(=O)(O)O)[C@@H](O)[C@H]1O [A-5]	27	150
Nc1nc(Cl)c2ncn([C@@H]3O[C@H](COP(=O)(O)OP(=O)(O)OP(=O)(O)O)[C@@H](O)[C@H]3O)c2n1 [A-6]	9.6	53
O=c1[nH]c(=O)c2ncn([C@@H]3O[C@H](COP(=O)(O)OP(=O)(O)OP(=O)(O)O)[C@@H](O)[C@H]3O)c2[nH]1 [A-8]	1.8	10
Nc1nc2c(ncn2[C@@H]2O[C@H](COP(=O)(O)OP(=O)(O)OP(=O)(O)O)[C@@H](O)[C@H]2O)c(=S)[nH]1 [A-9]	2.9	16
O=P(O)(O)OP(=O)(O)OP(=O)(O)OC[C@H]1O[C@@H](n2cnc3c(Cl)ncnc32)[C@H](O)[C@@H]1O [A-11]	0.4	2

Second part, the compound after the results:

Ki [1] [µM]	IC50 [2] [µM]	Structure (SMILES)
1.1	6.1	Nc1nc2c(ncn2[C@H]2CC[C@@H](COP(=O)(O)OP(=O)(O)OP(=O)(O)O)O2)c(=O)[nH]1 [A-12]
–	8.1	O=P(O)(O)OP(=O)(O)OP(=O)(O)OC[C@H]1O[C@@H](n2cnc3c(S)ncnc32)[C@H](O)[C@@H]1O [A-18]
16	87	Nc1nc2c(ncn2[C@@H]2O[C@H](COP(=O)(O)OP(=O)(O)OP(=O)(O)O)[C@@H](O)[C@H]2O)c(=O)[nH]1 [GTP]
–	0.4	O=P(O)(O)OP(=O)(O)OP(=O)(O)O [Tripoly-PO4]
14	76	Nc1nc2c(ncn2[C@H]2C[C@H](O)[C@@H](COP(=O)(O)OP(=O)(O)OP(=O)(O)O)O2)c(=O)[nH]1 [dGTP]
